Reference: ChEMBL document CHEMBL5150013, “The Repertoire of Small-Molecule PET Probes for Neuroinflammation Imaging: Challenges and Opportunities beyond TSPO” (J Med Chem, 2021)
Blank lines part the entries; values can stand above or below the compound they belong to.

Key:
[1] = target: Sphingosine 1-phosphate receptor 2 (Homo sapiens, UniProt O95136)
[2] = cynomolgus monkey, in vivo, 2 h
Cannabinoid receptor 2 = Cannabinoid receptor 2 (Homo sapiens, UniProt P34972)
[3] = target: T1, Prostaglandin G/H synthase 2 (Homo sapiens, UniProt P35354)
T1 sequence (P35354 whole entry): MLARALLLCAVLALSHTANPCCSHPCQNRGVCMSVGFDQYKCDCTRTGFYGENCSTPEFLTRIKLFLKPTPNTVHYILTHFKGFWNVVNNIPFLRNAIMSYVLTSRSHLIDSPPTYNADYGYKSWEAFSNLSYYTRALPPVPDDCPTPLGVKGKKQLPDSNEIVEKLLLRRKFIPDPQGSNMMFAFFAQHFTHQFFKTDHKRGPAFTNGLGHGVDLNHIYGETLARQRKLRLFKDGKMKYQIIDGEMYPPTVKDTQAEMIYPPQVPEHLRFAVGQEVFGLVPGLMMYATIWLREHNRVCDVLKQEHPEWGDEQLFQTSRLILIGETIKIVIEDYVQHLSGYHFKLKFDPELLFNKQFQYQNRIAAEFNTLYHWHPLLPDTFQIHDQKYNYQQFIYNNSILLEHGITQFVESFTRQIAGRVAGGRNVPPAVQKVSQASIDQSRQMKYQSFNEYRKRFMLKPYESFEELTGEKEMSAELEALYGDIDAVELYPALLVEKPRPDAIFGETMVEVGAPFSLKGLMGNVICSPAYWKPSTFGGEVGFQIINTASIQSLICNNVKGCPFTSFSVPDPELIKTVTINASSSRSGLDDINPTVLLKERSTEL

[4] = rat, in vivo, 2 h
physchem = conditions: octanol/water
[5] = target: Prostaglandin G/H synthase 1 (Homo sapiens, UniProt P23219)
Chain of Prostaglandin G/H synthase 1 (P23219 whole entry): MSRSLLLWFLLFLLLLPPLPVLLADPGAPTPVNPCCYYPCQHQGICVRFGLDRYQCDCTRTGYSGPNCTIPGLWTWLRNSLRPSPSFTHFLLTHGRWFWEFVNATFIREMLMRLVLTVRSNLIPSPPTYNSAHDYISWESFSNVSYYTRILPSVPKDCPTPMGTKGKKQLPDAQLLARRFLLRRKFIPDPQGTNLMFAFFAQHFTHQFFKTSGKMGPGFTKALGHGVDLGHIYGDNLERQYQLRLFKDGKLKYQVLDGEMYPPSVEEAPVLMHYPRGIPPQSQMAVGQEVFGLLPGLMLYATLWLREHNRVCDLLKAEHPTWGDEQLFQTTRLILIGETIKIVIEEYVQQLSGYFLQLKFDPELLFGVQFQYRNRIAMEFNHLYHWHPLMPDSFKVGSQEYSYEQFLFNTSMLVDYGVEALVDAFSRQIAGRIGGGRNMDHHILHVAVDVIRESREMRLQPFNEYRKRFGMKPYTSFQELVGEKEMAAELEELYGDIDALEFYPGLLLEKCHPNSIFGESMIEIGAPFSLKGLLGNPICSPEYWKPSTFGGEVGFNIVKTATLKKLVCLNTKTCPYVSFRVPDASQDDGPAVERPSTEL

in vivo [6] = conditions: rat
P2X purinoceptor 7 [7] = target: T2, P2X purinoceptor 7 (Homo sapiens, UniProt Q99572)
T2 sequence (Q99572 whole entry): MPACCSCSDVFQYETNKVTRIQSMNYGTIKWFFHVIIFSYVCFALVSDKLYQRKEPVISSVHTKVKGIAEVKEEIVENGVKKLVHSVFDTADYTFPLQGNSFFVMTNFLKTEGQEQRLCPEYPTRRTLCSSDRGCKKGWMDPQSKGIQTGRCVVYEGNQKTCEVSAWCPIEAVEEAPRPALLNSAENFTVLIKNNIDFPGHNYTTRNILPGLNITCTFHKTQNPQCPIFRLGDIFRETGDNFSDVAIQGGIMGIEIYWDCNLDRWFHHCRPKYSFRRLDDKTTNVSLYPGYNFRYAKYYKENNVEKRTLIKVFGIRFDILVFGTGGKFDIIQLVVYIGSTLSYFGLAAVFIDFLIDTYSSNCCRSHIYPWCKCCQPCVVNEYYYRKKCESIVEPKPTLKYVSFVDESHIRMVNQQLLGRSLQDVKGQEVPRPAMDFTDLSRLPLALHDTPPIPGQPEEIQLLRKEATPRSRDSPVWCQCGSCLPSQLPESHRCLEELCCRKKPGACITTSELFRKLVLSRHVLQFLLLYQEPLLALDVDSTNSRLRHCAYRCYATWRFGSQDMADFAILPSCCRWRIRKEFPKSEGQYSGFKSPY

[8] = mouse, in vivo, 0.05 h
P2Y purinoceptor 12 = P2Y purinoceptor 12 (Homo sapiens, UniProt Q9H244); type: functional
Chain of P2Y purinoceptor 12 (Q9H244 whole entry): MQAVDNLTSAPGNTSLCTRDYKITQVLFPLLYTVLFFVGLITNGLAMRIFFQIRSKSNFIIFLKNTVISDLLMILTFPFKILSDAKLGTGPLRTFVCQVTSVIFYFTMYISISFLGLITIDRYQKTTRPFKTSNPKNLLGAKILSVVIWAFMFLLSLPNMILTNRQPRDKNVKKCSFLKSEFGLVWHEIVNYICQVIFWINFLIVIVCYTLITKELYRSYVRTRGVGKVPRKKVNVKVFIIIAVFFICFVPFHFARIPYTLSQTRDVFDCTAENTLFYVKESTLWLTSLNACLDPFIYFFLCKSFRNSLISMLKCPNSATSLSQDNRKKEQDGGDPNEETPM

[9] = target: T3, Macrophage colony-stimulating factor 1 receptor (Homo sapiens, UniProt P07333)
T3 sequence (P07333 whole entry): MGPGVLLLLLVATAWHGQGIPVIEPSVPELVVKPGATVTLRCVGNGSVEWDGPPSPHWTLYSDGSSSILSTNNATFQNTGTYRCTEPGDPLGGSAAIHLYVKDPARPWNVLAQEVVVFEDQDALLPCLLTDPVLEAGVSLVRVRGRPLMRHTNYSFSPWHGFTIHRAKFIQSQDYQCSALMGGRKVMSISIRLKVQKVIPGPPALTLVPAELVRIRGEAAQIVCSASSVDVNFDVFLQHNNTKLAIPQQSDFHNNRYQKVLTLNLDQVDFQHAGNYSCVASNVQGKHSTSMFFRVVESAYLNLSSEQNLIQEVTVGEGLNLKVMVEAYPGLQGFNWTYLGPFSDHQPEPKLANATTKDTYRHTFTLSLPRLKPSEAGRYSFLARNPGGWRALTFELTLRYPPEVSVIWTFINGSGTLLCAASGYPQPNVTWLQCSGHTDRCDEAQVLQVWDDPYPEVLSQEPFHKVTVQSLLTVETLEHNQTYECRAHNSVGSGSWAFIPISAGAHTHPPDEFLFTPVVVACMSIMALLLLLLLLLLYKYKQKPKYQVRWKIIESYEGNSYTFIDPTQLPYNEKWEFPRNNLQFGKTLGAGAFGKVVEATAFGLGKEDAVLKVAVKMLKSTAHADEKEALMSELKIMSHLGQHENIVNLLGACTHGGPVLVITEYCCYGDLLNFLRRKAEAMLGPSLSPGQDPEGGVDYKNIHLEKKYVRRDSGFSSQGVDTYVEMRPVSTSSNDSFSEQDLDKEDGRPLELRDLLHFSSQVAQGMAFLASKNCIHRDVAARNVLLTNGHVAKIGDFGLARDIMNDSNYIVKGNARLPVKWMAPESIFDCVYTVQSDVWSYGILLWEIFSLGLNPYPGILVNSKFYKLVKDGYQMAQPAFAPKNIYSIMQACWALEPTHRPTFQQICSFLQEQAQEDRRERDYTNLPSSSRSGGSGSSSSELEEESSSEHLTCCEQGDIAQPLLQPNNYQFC

[10] = target: T3, Macrophage colony-stimulating factor 1 receptor; remark: listed apart in the source
[11] = mouse, in vivo
[12] = human, Brain, 2 min
[13] = rhesus monkey, in vivo
in vivo [14] = conditions: mouse, hcc4006
in vivo [15] = conditions: mouse
[16] = primates, Brain, 5 min
[17] = primates, Brain, 1.417 h
[18] = rhesus monkey, in vivo, 7 min
[19] = primates, Brain
[20] = rhesus monkey, in vivo, 7 min; remark: listed apart in the source
[21] = mouse, in vivo, 0.5 h
[22] = mouse, in vivo, 0.5 h; remark: listed apart in the source
[23] = mouse, in vivo; remark: listed apart in the source
[24] = target: T4, Amine oxidase [flavin-containing] B (Homo sapiens, UniProt P27338)
T4 sequence (P27338 whole entry): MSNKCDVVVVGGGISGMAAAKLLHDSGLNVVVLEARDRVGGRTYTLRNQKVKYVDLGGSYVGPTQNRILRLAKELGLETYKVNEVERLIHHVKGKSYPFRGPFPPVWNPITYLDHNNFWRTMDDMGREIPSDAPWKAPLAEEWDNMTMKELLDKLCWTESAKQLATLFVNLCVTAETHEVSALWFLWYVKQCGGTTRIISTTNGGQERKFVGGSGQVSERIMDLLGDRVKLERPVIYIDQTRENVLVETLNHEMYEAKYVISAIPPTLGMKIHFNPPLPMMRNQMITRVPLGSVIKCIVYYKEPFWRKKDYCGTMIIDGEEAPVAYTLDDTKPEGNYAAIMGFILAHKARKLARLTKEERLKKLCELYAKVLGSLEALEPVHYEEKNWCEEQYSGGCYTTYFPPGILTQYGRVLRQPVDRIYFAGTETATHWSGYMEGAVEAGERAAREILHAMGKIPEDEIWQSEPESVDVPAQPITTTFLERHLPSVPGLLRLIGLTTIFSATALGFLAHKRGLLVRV

[25] = papio anubis, in vivo
[26] = papio anubis, in vivo; remark: listed apart in the source
P2X purinoceptor 7 [27] = target: T2, P2X purinoceptor 7; remark: listed apart in the source
[28] = primates, Brain; remark: listed apart in the source
in vivo [29] = conditions: C57BL/6, mouse
[30] = target: T4, Amine oxidase [flavin-containing] B; remark: listed apart in the source
[31] = papio papio, in vivo
[32] = mouse, in vivo; remark: listed apart in the source
[33] = mouse, in vivo, 20 min
in vivo [34] = conditions: mouse; remark: listed apart in the source
[35] = mouse, in vivo; remark: listed apart in the source
[36] = mouse, in vivo; remark: listed apart in the source
[37] = mouse, in vivo, 10 min
in vivo [38] = conditions: mouse; remark: listed apart in the source
in vivo [39] = conditions: mouse; remark: listed apart in the source
[40] = rhesus monkey, in vivo; remark: listed apart in the source
[41] = target: Melatonin receptor type 1A (Homo sapiens, UniProt P48039)
Chain of Melatonin receptor type 1A (P48039 whole entry): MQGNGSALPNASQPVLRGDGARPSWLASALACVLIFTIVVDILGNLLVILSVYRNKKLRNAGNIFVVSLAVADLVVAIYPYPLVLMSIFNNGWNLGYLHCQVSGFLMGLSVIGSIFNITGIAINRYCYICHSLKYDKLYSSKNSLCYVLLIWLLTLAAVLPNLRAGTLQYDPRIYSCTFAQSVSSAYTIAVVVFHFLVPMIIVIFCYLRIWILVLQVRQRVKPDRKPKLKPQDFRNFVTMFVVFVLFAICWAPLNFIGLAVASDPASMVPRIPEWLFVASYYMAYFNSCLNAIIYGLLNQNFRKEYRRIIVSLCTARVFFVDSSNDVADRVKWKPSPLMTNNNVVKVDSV

[42] = primates, Brain, 4 min
[43] = target: Sphingosine 1-phosphate receptor 1 (Homo sapiens, UniProt P21453)
Chain of Sphingosine 1-phosphate receptor 1 (P21453 whole entry): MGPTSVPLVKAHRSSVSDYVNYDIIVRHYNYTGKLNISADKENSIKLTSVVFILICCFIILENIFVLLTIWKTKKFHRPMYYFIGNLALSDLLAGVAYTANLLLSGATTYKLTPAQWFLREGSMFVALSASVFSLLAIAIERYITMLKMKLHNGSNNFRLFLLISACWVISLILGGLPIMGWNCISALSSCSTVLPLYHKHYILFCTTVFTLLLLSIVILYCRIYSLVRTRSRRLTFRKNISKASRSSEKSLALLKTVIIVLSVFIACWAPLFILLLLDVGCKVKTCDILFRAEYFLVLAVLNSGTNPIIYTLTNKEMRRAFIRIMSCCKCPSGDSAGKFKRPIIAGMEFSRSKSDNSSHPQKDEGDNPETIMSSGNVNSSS

in vivo [44] = conditions: C3H, mouse, iv, 10 mg/kg
in vivo [45] = conditions: C3H, mouse, iv, 10 mg/kg; remark: listed apart in the source
[46] = rhesus monkey, in vivo; remark: listed apart in the source

Chain of Sphingosine 1-phosphate receptor 2 (O95136 whole entry): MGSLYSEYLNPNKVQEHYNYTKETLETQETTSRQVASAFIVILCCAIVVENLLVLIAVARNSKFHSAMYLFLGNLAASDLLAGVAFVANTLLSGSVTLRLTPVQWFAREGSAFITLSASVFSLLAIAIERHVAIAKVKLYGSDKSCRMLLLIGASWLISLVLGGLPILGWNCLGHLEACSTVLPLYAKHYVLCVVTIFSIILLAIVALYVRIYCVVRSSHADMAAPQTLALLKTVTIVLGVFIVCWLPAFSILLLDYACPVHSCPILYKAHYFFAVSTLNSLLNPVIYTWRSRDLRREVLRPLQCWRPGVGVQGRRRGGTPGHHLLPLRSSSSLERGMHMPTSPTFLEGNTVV
Chain of Cannabinoid receptor 2 (P34972 whole entry): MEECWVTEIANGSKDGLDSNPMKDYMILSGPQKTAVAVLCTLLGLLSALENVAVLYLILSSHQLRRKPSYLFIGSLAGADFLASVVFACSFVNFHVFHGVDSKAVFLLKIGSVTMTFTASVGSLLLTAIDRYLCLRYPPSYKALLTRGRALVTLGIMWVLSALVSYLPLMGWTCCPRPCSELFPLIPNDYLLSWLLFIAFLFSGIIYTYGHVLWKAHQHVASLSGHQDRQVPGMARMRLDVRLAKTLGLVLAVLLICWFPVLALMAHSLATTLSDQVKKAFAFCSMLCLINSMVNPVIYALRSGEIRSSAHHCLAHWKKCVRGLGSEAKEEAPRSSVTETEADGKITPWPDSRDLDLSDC

IC50 [5]: 3300 nM
Compound: CS(=O)(=O)c1ccc(-n2c(-c3ccc(O[11CH3])c(F)c3)cnc2Cl)cc1

IC50 [5]: 10000 nM
Compound: [11CH3]Oc1ccc(-c2cnc(Cl)n2-c2ccc(S(N)(=O)=O)cc2)cc1F

SUV [11]: 0.97
SUV [12]: 1.5
IC50 [5]: 47 nM
Compound: COC(=O)C([11CH3])c1cccc(C(=O)c2ccccc2)c1 (configuration not stated)

Vd [13]: 37%
Compound: [11CH3]Oc1ccc(Cc2cn[nH]c2)nc1-c1cccc([N+](=O)[O-])c1

tissue uptake at 2 min (in vivo [14]): 7.85 %ID/g
tissue uptake at 2 min (in vivo [15]): 0.2 %ID/g
Compound: Cc1ccc(-c2ccc3cc(OC[C@H](O)C[18F])ccc3n2)cn1

IC50 [5]: 30000 nM
Compound: NS(=O)(=O)c1ccc(-n2nc3ccccc3c2-c2ccc([18F])cc2)cc1

SUV [16]: 3.2
Compound: OCCOCc1ccc(-c2noc(-c3ccc(OCC[18F])c(C(F)(F)F)c3)n2)cc1

SUV [17]: 1.99
SUV [18]: 4.11
SUV [19]: 54%
SUV [20]: 1.05
Compound: [2H]C([2H])([18F])Oc1nc(-c2ccc(OC)cc2)n(-c2ccc(OC)cc2)n1

IC50 (P2X purinoceptor 7 [27]): 40 nM
Compound: COc1ccc(CC(=O)NC(N/C(=N/C#N)Nc2cccc3ncccc23)C(C)(C)C)cc1O[11CH3] (configuration not stated)

SUV [17]: 0.62
SUV [28]: 4.26
Compound: COc1ccc(-c2nc(O[11CH3])nn2-c2ccc(OC)cc2)cc1

tissue uptake at 1 h (in vivo [29]): 7 %ID/g
Compound: Cc1ccccc1-c1ccc(-c2nc(-c3ccc(CN(C)CCC(=O)O)c(F)c3)no2)cc1C(F)(F)F

IC50 [30]: 4 nM
Drug uptake [31]: 70%
Compound: N#CCCn1nc(-c2ccc(OCc3ccccc3)cc2)o[11c]1=O

IC50 [5]: 10000 nM
Compound: [11CH3]Oc1ccc(-c2c(-c3ccc(S(N)(=O)=O)cc3)[nH]c3ccccc23)cc1

tissue uptake at 5 min (in vivo [6]): 0.027 %ID/g
SUV [37]: 7
Compound: O=C(O)C1CN(Cc2ccc(-c3noc(-c4ccc(OCC[18F])c(C(F)(F)F)c4)n3)cc2)C1

tissue uptake at 1 h (in vivo [38]): 1.74 %ID/g
tissue uptake at 1 h (in vivo [39]): 3.79 %ID/g
Compound: CS(=O)(=O)c1ccc(-c2cc(C(F)(F)F)nc(NCc3ccc([18F])cc3)n2)cc1

Drug uptake [40]: 41%
IC50 [5]: > 1000 nM
Compound: CS(=O)(=O)c1ccc(-c2cc(O[11CH3])nc(NCc3cccs3)n2)cc1

SUV [17]: 1.99
SUV [28]: 4.29
SUV [19]: 54%
Compound: COc1ccc(-n2nc(OCC(F)(F)F)nc2-c2ccc(O[11CH3])cc2)cc1

Vd [13]: 48%
Compound: [11CH3]Oc1ccc(Cc2ccncc2)nc1-c1cccc([N+](=O)[O-])c1

SUV [46]: <= 3.1
SUV [35]: <= 1.2
Compound: COc1ccc(COc2ccc(Cc3cnc(N)nc3N)cc2OC)cc1 [GW632580X]

Further lines, the compound ahead of its results:

Compound: Cc1nn(C)c2nc(NNC(=O)Nc3cc(Cl)nc(Cl)c3)cc(C(C)C)c12
IC50 [1]: 68.5 nM

Compound: C#CCN(C)[C@H](C[18F])Cc1ccccc1
SUV [2]: 6

Compound: CCCCOc1c(OC)ccc2cc(C(=O)NC3CCCCC3)c(=O)[nH]c12
Ki (Cannabinoid receptor 2): 9.6 nM

Compound: CS(=O)(=O)c1ccc(-c2ccsc2-c2ccc(F)cc2)cc1
Ki [3]: 250 nM
SUV [4]: 0.17

Compound: CCOCCn1cc(C(=O)NC23CC4CC(CC(C4)C2)C3)c(=O)c2cccc(OC)c21
logD (physchem): 2.8

Compound: OCc1cn(Cc2ccc(-c3noc(-c4ccc(OCC[18F])c(C(F)(F)F)c4)n3)cc2)nn1
tissue uptake at 5 min (in vivo [6]): 0.46 %ID/g

Compound: N#C/N=C(/NCc1ccc([18F])cc1)Nc1cccc2ncccc12
Ki (P2X purinoceptor 7 [7]): 2.9 nM

Compound: [13CH3]N1C=C(C(N)=O)Cc2ccccc21
SUV [8]: 3.5

Compound: [11CH3]Oc1ccc(Cl)c(C(=O)NCC23CC4(F)CC(F)(CC(F)(C4)C2)C3)c1
EC50 (P2Y purinoceptor 12): 60 nM

Compound: CCOc1cc2ccc(C(N)=O)c(Nc3ccc(F)cc3F)c2cc1N1CCN([11CH3])CC1
Ki [9]: 8 nM
IC50 [10]: 6 nM

Compound: Cc1nn(C)c2nc(NNC(=O)C(C)c3cc(Cl)nc(O[11CH3])c3)cc(C(C)C)c12 (configuration not stated)
IC50 [1]: 9.52 nM
SUV [21]: 0.58
SUV [22]: 0.48

Compound: [11CH3]N1CCN(c2ccc(NC(=O)c3ccc(C#N)o3)c(N3CCCCC3)c2)CC1
SUV [23]: 0.6

Compound: COCC1CN(c2noc3cc(OCCCC(F)(F)F)ccc23)[11C](=O)O1 (configuration not stated)
Ki [24]: 2.9 nM
Vd [25]: 10.3 ml/cm3
Vd [26]: 10.9 ml/cm3

Compound: CN1c2cc(N)ccc2-c2ccc(N)cc2C1c1ccc(OCC[18F])cc1 (configuration not stated)
Drug uptake [32]: 10 %ID/cm3
Drug uptake [33]: 150%

Compound: O=C1Nc2c(Cl)ccc(OCC[18F])c2C2(CCCCC2)N1
tissue uptake (in vivo [34]): 5 %ID/g
SUV [35]: 1.74

Compound: CCCCNc1ncc(-c2cccc([18F])n2)c(NC2CCC(O)CC2)n1 (configuration not stated)
Drug uptake [36]: 35%

Compound: OCCOCCOCc1ccc(-c2noc(-c3ccc(OCC[18F])c(C(F)(F)F)c3)n2)cc1
SUV [28]: 0.7

Compound: O=C(c1ccc([18F])cc1)N(Cc1ccccc1)C1CCCCC1
Ki [41]: 90 nM

Compound: CN1c2cc(N)ccc2-c2ccc(N)cc2C1c1ccc([18F])cc1 (configuration not stated)
SUV [35]: 2.3

Compound: OCC(O)c1ccc(-c2noc(-c3ccc(OCC[18F])c(C(F)(F)F)c3)n2)cc1 (configuration not stated)
SUV [42]: 2.5
IC50 [43]: 15.4 nM

Compound: Cc1ccc(-n2nc(C(F)(F)F)cc2-c2ccc(S(=O)(=O)Nc3ccc([18F])cc3)cc2)cc1
IC50 [5]: 100000 nM

Compound: [11CH3]N1C(=O)CC[C@H]1C(=O)NCc1cccc(C(F)(F)F)c1Cl
IC50 (P2X purinoceptor 7 [27]): 3 nM

Compound: OCc1ccc(-c2noc(-c3ccc(OCC[18F])c(C(F)(F)F)c3)n2)cc1
SUV [42]: 3.8

Compound: CN([11CH3])CCc1ccccc1
tissue uptake at 1 min (in vivo [44]): 7.9 %ID/g
tissue uptake at 1 h (in vivo [45]): 2.8 %ID/g
